Holding throughout (type): cell-based
Experiment [1] has as its system influenza virus (influenza A/kitakyusyu/159/93 (H3N2)).
The test system is the same in experiment [2]. Briefly: Virus inactivation, plaque assay on MDCK cells. The following applies: enveloped influenza virus, time period as short as 1 minute.
Experiment [3] deals with feline calicivirus (F9 strain). As to the kind of experiment: Virus inactivation, plaque assay on CrFK cells. The following applies: non-enveloped feline calicivirus, time period as short as 1 minute.
[4] abbreviates: conc. of substance 0.5 mass %, 10 minutes at room temperature, control (PBS) 128.
The mark [5] stands for this setting: conc. of substance 5 mass %, 10 minutes at room temperature, control (PBS) 128.

Several values for one entry are separate records, joined by “and”; a condition that tells them apart may be missing. Equal values may be shown once. Read-outs that look alike come from different tables or passages of the source. A value given as a limit tells only on which side of the number the result lay.

As for `[Cu+].[I-]` [Example 1, Copper (I) iodide], the values for the HA titer in experiment [1] (setting [4]) and in experiment [1] (setting [5]) were 32 and 8, respectively. For the same molecule, the “virus inactivation activity (in words)” value in experiment [2] and in experiment [3] was “sufficiently high virus inactivation activity” throughout.
On to `[I][Sb]([I])[I]` [Example 3, Antimony (III) iodide], for which the figures for the HA titer in experiment [1] (setting [4]) and in experiment [1] (setting [5]) were 32 and 16, respectively.
Consider `[I][Ir]([I])([I])[I]` [Example 4, Iridium (IV) iodide], for which the values for the HA titer in experiment [1] (setting [4]) and in experiment [1] (setting [5]) were 64 and 32, respectively.
In the case of `[I][Ge]([I])([I])[I]` [Example 5, Germanium (IV) iodide], the HA titer in experiment [1] (setting [4]) and in experiment [1] (setting [5]) was less than 2 each time.
In the case of `[I][Ge][I]` [Example 6, Germanium (II) iodide], the HA titer in experiment [1] (setting [4]) was 2; in experiment [1] (setting [5]), less than 2.
On the same counts, the results for `[I][Sn][I]` [Example 7, Tin (II) iodide] are 2 and less than 2.
On to `[I][Sn]([I])([I])[I]` [Example 8, Tin (IV) iodide], for which the HA titer in experiment [1] (setting [4]) is listed as 2; in experiment [1] (setting [5]), less than 2.
Regarding `[I-].[Tl+]` [Example 9, Thallium (I) iodide], the HA titer is 64 in experiment [1] (setting [4]) and 32 in experiment [1] (setting [5]).
For `[I-].[I-].[I-].[I-].[Pt+4]` [Example 11, Platinum (IV) iodide], in that order: 64 and 32.
On to `[I][Pd][I]` [Example 12, Palladium (II) iodide], for which the HA titer in experiment [1] (setting [4]) is 64; in experiment [1] (setting [5]), 2.
With `[I][Bi]([I])[I]` [Example 13, Bismuth (III) iodide], the HA titer in experiment [1] (setting [4]) is 64; in experiment [1] (setting [5]) it was 8.
For `[I][Au]` [Example 14, Gold (I) iodide], in that order: 64 and 4.
On to `[Fe+2].[I-].[I-]` [Example 16, Iron (II) iodide], for which the HA titer in experiment [1] (setting [4]) and in experiment [1] (setting [5]) was less than 2 throughout.
Turning to `[Co+2].[I-].[I-]` [Example 17, Cobalt (II) iodide], the HA titer in experiment [1] (setting [4]) is recorded as 8; in experiment [1] (setting [5]) it was less than 2.
With `[I][Ni][I]` [Example 18, Nickel (II) iodide], in experiment [1], the HA titer was <2 and 4.
As for `[I-].[I-].[Zn+2]` [Example 19, Zinc (II) iodide], the HA titer in experiment [1] (setting [4]) was 4; in experiment [1] (setting [5]) it was less than 2.
Take `[I][In]([I])[I]` [Example 21, Indium (III) iodide]: the HA titer in experiment [1] (setting [4]) and in experiment [1] (setting [5]) was less than 2 each time.
With `[Cl][Cu]` [Example 22, Copper (I) chloride], the HA titer in experiment [1] (setting [4]) and in experiment [1] (setting [5]) was less than 2 each time. In addition, the “virus inactivation activity (in words)” value in experiment [2] and in experiment [3] was “sufficiently high virus inactivation activity” each time.
Turning to `[Cu][Br]` [Example 23, Copper (I) bromide], the HA titer in experiment [1] (setting [4]) is recorded as 32; in experiment [1] (setting [5]), less than 2.
On to `CC(=O)[O-].[Cu+]` [Example 24, Copper (I) acetate], for which the HA titer in experiment [1] was less than 2.
`N#C[S-].[Cu+]` [Example 25, Copper (I) thiocyanate]: the HA titer in experiment [1] (setting [4]) was 64; in experiment [1] (setting [5]) it was 16.
Take `[Cu].[O]=[Cu]` [Example 27, Copper (I) oxide]: the HA titer is 64 in experiment [1] (setting [4]) and 8 in experiment [1] (setting [5]).
Consider Silver (I) iodide [Example 20], for which the HA titer in experiment [1] (setting [4]) worked out at 64; in experiment [1] (setting [5]), 32.

The record behind these values is US9549949B2, “Antiviral agent” (NBC MESHTEC, INC., priority 2008, dated 2017).
